Data taken from patent publication US20160251402A1, “MICROPEPTIDES AND USE OF SAME FOR MODULATING GENE EXPRESSION” (UNIVERSITE PAUL SABATIER TOULOUSE III, priority 2013, published 2016).
“Also recorded” adds a separate entry of the source.

Columns and labels:
[1] = tested on: pre-MtmiR171b, pre-MtmiR169, pre-MtmiR169a, pre-MtmiR171a, pre-MtmiR171h, pre-MtmiR393a, pre-MtmiR393b, pre-MtmiR396a, pre-MtmiR396b; assay: Specificity: expression of different precursors of microRNAs in M. truncatula; type: in vivo, Medicago truncatula; settings: plants overexpressing MtmiPEP171b1 or treated with MtmiPEP171b1 (0.1 μM)
Procedure: The expression of different microRNA precursors of Medicago truncatula (MtmiR171b SEQ ID NO: 319, MtmiR169 SEQ ID NO: 367, MtmiR169a SEQ ID NO: 368, MtmiR171a SEQ ID NO: 369, MtmiR171h SEQ ID NO: 370, MtmiR393a SEQ ID NO: 371, MtmiR393b SEQ ID NO: 372, MtmiR396a SEQ ID NO: 373 and MtmiR396b SEQ ID NO: 374) was determined and compared between control plants and plants in which MtmiORF171b encoding MtmiPEP171b1 was overexpressed (FIG. 5A), or between control plants and plants grown on culture medium containing MtmiPEP171b1 (FIG. 5B).
(§1) The total RNA was extracted from roots of M. truncatula or from tobacco leaves using the extraction kit RNeasy Plant Mini Kit (Qiagen). The reverse transcription was performed using the reverse transcriptase SuperScript II (Invitrogen) starting from 500 ng of total RNA. Three repetitions (n=3) were carried out, each with two technical repetitions. Each experiment was repeated from two to three times. The amplifications by qPCR were carried out using a LightCycler 480 System thermocycler (Roche Diagnostics) by the method described in Lauressergues et al. (Plant J., 72(3): 512-22, 2012).

MtmiR171b [2] = assay: Accumulation of MtmiR171b / pre-MtmiR171b in M. truncatula roots (qRT-PCR); type: in vivo, Medicago truncatula; settings: for relative expression of pre-MtmiR171b: watering once daily for 5 days with peptide at 0.01, 0.1 or 1 μM vs control plants
Procedure: The surface of seeds of M truncatula was sterilized and they were left to germinate on agar plates for 5 days at 4° C. in the dark. The young shoots were then grown on 12-cm square plates filled with Fahraeus medium without nitrogen and containing 7.5 μM phosphate (Lauressergues et al., Plant J., 72(3): 512-22, 2012). The lateral roots were counted every day. In pots, the plants were watered every other day with modified Long Ashton medium with low phosphorus content (Balzergue et al., Journal of Experimental Botany, (62)1049-1060, 2011).
The peptides were synthesized by Eurogentec or Smartox-Biotech. MtmiPEP171b1 was resuspended in a solution of 40% water/50% acetonitrile/10% acetic acid (v/v/v), and the other peptides were resuspended in water.
The RNA was extracted using the reagent Tri-Reagent (MRC) according to the manufacturer's instructions, except for precipitation of the RNA, which was carried out with 3 volumes of ethanol. The everse transcription of the RNA was carried out using the specific stem-loop primer RTprimer171b in combination with hexamers for performing the reverse transcription of RNA of high molecular weight.
In brief, 1 μg of RNA was added to the stem-loop primer MIR171b (0.2 μM), the hexamer (500 ng), the buffer RT (1×), the enzyme SuperScript Reverse transcriptase (SSIII) (one unit), the dNTPs (0.2 mM each), DTT (0.8 mM) in a final reaction mixture of 25 μl. […]
The mean values of the relative expression of the genes or of the production of lateral roots were analysed using the Student test or the Kruskal-Wallis test. […]
The composite plants having roots transformed with Agrobacterium rhizogenes were obtained by the method described in Boisson-Dernier et al. (Mol Plant-Microbe Interact, 18: 1269-1276, 2005). The transformed roots were verified and selected by observations of DsRED with a binocular fluorescence magnifier. […]

MtmiR171b [3] = assay: Accumulation of pri-/pre-/mature MtmiR171b in transformed tobacco leaves; type: in vivo, Nicotiana benthamiana
Procedure: In order to determine whether the mechanism of regulation of the microRNAs is conserved in other plant species, the regulation of MtmiR171b by MtmiPEP171b1 was tested in a different cellular model. For this, MtmiR171b and MtmiPEP171b1 were introduced into tobacco leaves.
The accumulation of MtmiR171b was measured in tobacco leaves transformed in order to express MtmiR171b of Medicago truncatula starting from wild-type pri-miRNA capable of producing MtmiPEP171b1, or starting from a mutated version of pri-miRNA incapable of producing MtmiPEP171b1 (in which the start codon ATG of MtmiORF171b has been replaced with ATT) (FIG. 6 and FIG. 20).
The accumulation of pre-MtmiR171b was measured in tobacco leaves transformed in order to express MtmiR171b of Medicago truncatula alone (control), or additionally expressing the wild-type MtmiORF171b of Medicago truncatula (35SmiPEP171b1 ATG), or a mutated version of MtmiORF171b in which the start codon ATG has been replaced with ATT (35SmiPEP171b1 ATT) (FIG. 7 and FIG. 21).
The leaves were watered by spraying with the peptides using peptide solutions at different concentrations (0.01, 0.1, 1 μM), firstly 12 h before sampling and then a second time 30 min before sampling.
as §1
The DNA fragments of interest were amplified with Pfu polymerase (Promega). The DNA fragments were cloned using the XhoI and NotI enzymes into a pPEX-DsRED plasmid for an overexpression under the control of the constitutive strong promoter 35S, and using the KpnI-NcoI enzymes into a pPEX GUS plasmid for the reporter genes, by the method described in Combier et al. (Genes & Dev, 22: 1549-1559, 2008).
The composite plants having roots transformed with Agrobacterium rhizogenes were obtained by the method described in Boisson-Dernier et al. (Mol Plant-Microbe Interact, 18: 1269-1276, 2005). The transformed roots were verified and selected by observations of DsRED with a binocular fluorescence magnifier. The control roots correspond to roots transformed with A. rhizogenes not containing the pPEX-DsRED vector. Transformation of the tobacco leaves was carried out by the method described in Combier et al. (Genes & Dev, 22: 1549-1559, 2008).

## MLLHRLSKFCKIERDIVYIS (listed as Medicago truncatula) [MtmiPEP171b1]
[1]
  ratio of the expression of the precursors of microRNAs to control roots (specificity): only leads to an effect on the accumulation of MtmiR171b and not on the other miRNAs; also recorded: only leads to an increase in the accumulation of MtmiR171b and not of the other miRNAs
MtmiR171b [2]; watering once daily for 5 days with peptide at 0.01, 0.1 or 1 μM vs control plant
  relative expression of MtmiR171b: increase in the accumulation
MtmiR171b [2]
  relative expression of pre-MtmiR171b: increase in the accumulation of pre-MtmiR171b
MtmiR171b [2]; listed as MtPEP171b1
  relative expression of pre-MtmiR171b: increase in the accumulation
MtmiR171b [3]; tobacco co-transformed with empty vector, miPEP vector, ATT-mutated ORF or degenerate ORF
  relative expression of MtmiR171b: increases the expression of MtmiR171b
MtmiR171b [3]; tobacco expressing MtmiR171b alone vs MtmiR171b and MtmiPEP171b1 (or ATT-mutated miORF)
  relative expression of pre-MtmiR171b: increases the expression of MtmiR171b
MtmiR171b [3]; tobacco expressing MtmiR171b and MtmiPEP171b1 with or without protein tags (His, HA or GFP)
  relative expression of pre-MtmiR171b: increases the expression of MtmiR171b, and this effect is independent of the presence of tags
MtmiR171b [3]; tobacco expressing MtmiR171b, peptide 0.1 μM sprayed twice, 12 h and 30 min before sampling
  relative expression of MtmiR171b: increase in the accumulation of MtmiR171b
MtmiR171b [3]; tobacco expressing MtmiR171b, peptide 0.1 μM sprayed twice, 12 h and 30 min before sampling, listed as miPEP171b1
  relative expression of MtmiR171b: increases the accumulation
MtmiR171b [3]; tobacco expressing MtmiR171b, treated with 0.1 μM of peptide
  relative expression of pre-MtmiR171b: increase in the accumulation
MtmiR171b [3]; tobacco expressing MtmiR171b, treated with 0.1 μM of peptide, listed as miPEP171b1
  relative expression of pre-MtmiR171b: increases the accumulation
MtmiR171b [3]; tobacco expressing pri-MtmiR171b vs mutated pri-MtmiR171b (ATG replaced with ATT, no translation of the miPEP)
  relative expression of MtmiR171b: marked decrease in the accumulation of miR171b; also recorded: marked decrease in the accumulation of MtmiR171b
MtmiR171b [3]; tobacco expressing pri-MtmiR171b vs mutated pri-MtmiR171b (ATG replaced with ATT, no translation of the miPEP), listed as miPEP171b1
  relative expression of MtmiR171b: marked decrease in the accumulation of miR171b
